Experimental data taken from PMC11024961, “Effects of Chrysin and Chrysin-7-sulfate on Ochratoxin A-Albumin Interactions and on the Plasma and Kidney Levels of the Mycotoxin in Rats” (ACS Omega, 2024).
Values joined by “and” are separate entries in the source; they are usually repeats but may differ in a detail not shown here. Identical values can stand only once.

Legend:
[1] = biological target: T1, human serum albumin (HSA) (Homo sapiens, UniProt P02768); experiment: Fluorescence emission intensity of OTA-HSA with ligands; assay type: binding; details: ligand 0–30 μM; OTA 1.0 μM, HSA 1.5 μM; λex 393 nm, λem 446 nm; inner-filter corrected
T1 construct: purchased Merck (Darmstadt, Germany) A1653
Protocol: (§1) Fluorescence spectroscopic studies were carried out using a Hitachi F-4500 spectrofluorometer (Tokyo, Japan). Fluorescence emission spectra were collected, and fluorescence anisotropy values were determined in phosphate-buffered saline (PBS, pH 7.4) at room temperature, using 393 and 446 nm as excitation and emission wavelengths, respectively. […] Absorption spectra of ligand molecules were also recorded employing a Jasco V730 UV–vis spectrophotometer (Tokyo, Japan), after which their inner-filter effects were corrected using the following equation:[28],[29] [drawing 1] 1 where Icor and Iobs are the corrected and the observed fluorescence emission intensities at 446 nm, respectively, while Aex and Aem are the absorbance values of the competitor ligand molecules at 393 and 446 nm, respectively.

[2] = biological target: T2, rat serum albumin (RSA) (Rattus norvegicus, UniProt P02770); experiment: Fluorescence emission intensity of OTA-RSA with ligands; assay type: binding; details: ligand 0–30 μM; OTA 1.0 μM, RSA 1.5 μM; λex 393 nm, λem 446 nm; inner-filter corrected
T2 construct: purchased Merck (Darmstadt, Germany) A6272
Protocol: as §1

[3] = biological target: T1, human serum albumin (HSA); experiment: Fluorescence anisotropy of OTA-HSA with ligands; assay type: binding
Protocol: as §1
(§2) Fluorescence anisotropy (r) values were calculated employing the following equation:[10],[30] [drawing 2] 2 where IVV is the emission intensity measured in vertical positions of the polarizers at both the presample and the postsample sites, IVH is the emission intensity measured in vertical position of the polarizer at presample site and in horizontal position of the polarizer at the postsample site, while G is the instrumental factor (showing the preference of the emission optics for the horizontal orientation to the vertical orientation).

[4] = biological target: T2, rat serum albumin (RSA); experiment: biochemical; assay type: binding
Protocol: (§3) Albumin (with the bound ligand molecules) was sedimented with ultracentrifugation, employing the previously described method.[26],[29],[31] […] These solutions (900 μL) were centrifuged for 16 h at 170,000g and 20 °C, using an Optima MAX-XP tabletop ultracentrifuge (with an MLA-130 fixed-angle rotor; Beckman Coulter, Brea, CA, US). After 200 μL of the protein-free supernatant was carefully aspirated, the free unbound concentration of OTA was directly analyzed from the supernatant by HPLC-FLD (details in Section 2.6). Association constants (Ka) of OTA-HSA and OTA-RSA complexes were calculated based on the following equation, assuming 1:1 stoichiometry of the complex formation:[29],[32] [drawing 3] 3 where [OTA] is the concentration of the unbound free mycotoxin, [SA] is the concentration of the unbound free serum albumin, while [OTA-SA] is the molar concentration of the mycotoxin-albumin complex in the solution.
(§4) OTA was quantified with the previously reported HPLC-FLD method,[48] employing an integrated HPLC system (Jasco, Tokyo, Japan): autosampler (AS-4050), binary pump (PU-4180), fluorescence detector (FP-920), and ChromNAV2 software. Briefly, the isocratic elution was performed with 1.0 mL/min flow rate at room temperature, using sodium borate buffer (0.01 M, pH 10.0) and ACN (87:13 v/v%) as the mobile phase. Samples (20 μL) were driven through a SecurityGuard precolumn (C18, 4.0 × 3.0 mm; Phenomenex, Torrance, CA, US) linked to a Kinetex EVO (C18, 150 × 4.6 mm, 5 μm; Phenomenex) analytical column. The fluorescence detection of the mycotoxin was carried out at 383 and 446 nm excitation and emission wavelengths, respectively.

[5] = biological target: T1, human serum albumin (HSA); experiment: biochemical; assay type: binding; details: for unbound fraction of OTA with HSA: OTA 1.0 μM, HSA 1.5 μM, PBS pH 7.4
Protocol: as §3, §4

[6] = biological target: T2, rat serum albumin (RSA); experiment: Fluorescence anisotropy of OTA-RSA with ligands; assay type: binding; details: ligand 0–30 μM; OTA 1.0 μM, RSA 1.5 μM
Protocol: as §1, §2

[7] = test system: Bovine serum albumin (BSA); set-up: method as in doi:10.1016/j.jlumin.2013.08.059; details: cited from earlier work
[8] = test system: HSA; details: cited from earlier work
[9] = set-up: method as in PMID 37649524; details: cited from earlier work
[10] = biological target: T2, rat serum albumin (RSA); set-up: method as in doi:10.1016/j.jlumin.2013.08.059; details: cited from earlier work
[11] = Plasma and kidney levels of OTA after repeated peroral OTA with or without CHR; assay type: in vivo, Wistar rats; details: CHR 1 or 3 mg/kg/day per os with OTA 100 μg/kg/day, three days; sampled on the fourth day
Protocol: (§5) Male Wistar rats were obtained from Toxi-Coop Ltd. (Budapest, Hungary). The animals (weighing 150–250 g) were kept at 24 ± 2 °C, at 50–60% relative air humidity, and on a 12 h light/dark cycle in the Laboratory Animal House of the Department of Pharmacology and Pharmacotherapy (Medical School, University of Pécs) under standard pathogen-free conditions and were provided with standard rat chow and tap water ad libitum.
Stock solution of OTA (10 mg/mL) was prepared in 96 v/v% ethanol (Reanal, Budapest, Hungary). C7S (90 mg/mL) were dissolved in dimethyl sulfoxide (Fluka, Charlotte, NC, US). In the i.v. experiments, the final concentration of dimethyl sulfoxide was uniformly 1.67 v/v % in each solution administered. In the per os experiments, CHR was suspended in physiological saline by using a mortar and pestle. […]
Sample preparation was performed as it has been previously reported.[48] […] These samples were directly analyzed by HPLC-FLD (see Section 2.6). […]
OTA was quantified with the previously reported HPLC-FLD method,[48] employing an integrated HPLC system (Jasco, Tokyo, Japan): autosampler (AS-4050), binary pump (PU-4180), fluorescence detector (FP-920), and ChromNAV2 software. […] The fluorescence detection of the mycotoxin was carried out at 383 and 446 nm excitation and emission wavelengths, respectively.

[12] = test system: HSA; set-up: method as in PMID 30562928; details: cited from earlier work
[13] = Plasma and kidney levels of OTA after single i.v. OTA with or without C7S; assay type: in vivo, Wistar rats
Protocol: as §5
Stock solution of OTA (10 mg/mL) was prepared in 96 v/v% ethanol (Reanal, Budapest, Hungary). C7S (90 mg/mL) were dissolved in dimethyl sulfoxide (Fluka, Charlotte, NC, US). In the i.v. experiments, the final concentration of dimethyl sulfoxide was uniformly 1.67 v/v % in each solution administered. In the per os experiments, CHR was suspended in physiological saline by using a mortar and pestle.
In the first experiment, rats were weighed and then treated intravenously through the tail vein with OTA (50 μg/kg, 2 mL/kg, in physiological saline) without or with C7S (1 or 3 mg/kg). Before and after the treatment, rats consumed feed and water ad libitum. Blood samples (approximately 100–150 μL) were collected from the tail vein into heparinized tubes after 2 and 6 h. After 24 h, blood (cardiac puncture) and kidney samples were collected. Plasma and tissue samples were stored at −80 °C until analysis.
Sample preparation was performed as it has been previously reported.[48] Briefly, after centrifugation, rat plasma was diluted with a 2-fold volume of acetonitrile, and then samples were vortexed, sonicated for 3 min, and centrifuged for 5 min at 14,000g and 4 °C. Thereafter, a 2-fold volume of HPLC eluent (see in Section 2.6) was added to the supernatant. These samples were directly analyzed by HPLC-FLD (see Section 2.6).
After weighing, kidney samples were homogenized with a 2-fold amount of water employing a Potter–Elvehjem tissue homogenizer. Then, 100 μL of homogenate was diluted with 2-fold volume of acetonitrile, after which these samples were treated the same way as plasma samples (vortexing, sonication, centrifugation, 2-fold dilution with HPLC eluent, and then HPLC-FLD analysis).
as §4, with “Samples (20 μL) were driven through a SecurityGuard precolumn (C18, 4.0 × 3.0 mm; Phenomenex, Torrance, CA, US) linked to a Kinetex EVO (C18, 150 × 4.6 mm, 5 μm; Phenomenex) analytical column.” left out

[14] = ligand 0–30 μM, OTA 1.0 μM, HSA 1.5 μM
[15] = C7S 3 mg/kg i.v. with OTA 50 μg/kg i.v., 24 h

T2 sequence (P02770 25-608): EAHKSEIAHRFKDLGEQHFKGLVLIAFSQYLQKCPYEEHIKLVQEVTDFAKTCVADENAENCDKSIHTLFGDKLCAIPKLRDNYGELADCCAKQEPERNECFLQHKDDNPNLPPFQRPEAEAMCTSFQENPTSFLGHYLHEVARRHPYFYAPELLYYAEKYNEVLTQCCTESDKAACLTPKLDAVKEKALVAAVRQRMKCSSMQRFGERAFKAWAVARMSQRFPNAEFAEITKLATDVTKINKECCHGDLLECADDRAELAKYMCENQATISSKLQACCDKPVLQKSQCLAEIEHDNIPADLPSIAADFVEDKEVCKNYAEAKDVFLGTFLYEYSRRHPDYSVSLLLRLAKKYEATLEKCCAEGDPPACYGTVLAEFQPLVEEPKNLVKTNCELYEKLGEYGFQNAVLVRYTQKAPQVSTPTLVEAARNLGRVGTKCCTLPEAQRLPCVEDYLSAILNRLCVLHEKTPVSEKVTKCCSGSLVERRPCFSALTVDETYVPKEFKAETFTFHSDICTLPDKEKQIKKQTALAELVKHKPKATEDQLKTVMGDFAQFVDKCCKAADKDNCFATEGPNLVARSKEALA
T1 sequence (P02768 25-609): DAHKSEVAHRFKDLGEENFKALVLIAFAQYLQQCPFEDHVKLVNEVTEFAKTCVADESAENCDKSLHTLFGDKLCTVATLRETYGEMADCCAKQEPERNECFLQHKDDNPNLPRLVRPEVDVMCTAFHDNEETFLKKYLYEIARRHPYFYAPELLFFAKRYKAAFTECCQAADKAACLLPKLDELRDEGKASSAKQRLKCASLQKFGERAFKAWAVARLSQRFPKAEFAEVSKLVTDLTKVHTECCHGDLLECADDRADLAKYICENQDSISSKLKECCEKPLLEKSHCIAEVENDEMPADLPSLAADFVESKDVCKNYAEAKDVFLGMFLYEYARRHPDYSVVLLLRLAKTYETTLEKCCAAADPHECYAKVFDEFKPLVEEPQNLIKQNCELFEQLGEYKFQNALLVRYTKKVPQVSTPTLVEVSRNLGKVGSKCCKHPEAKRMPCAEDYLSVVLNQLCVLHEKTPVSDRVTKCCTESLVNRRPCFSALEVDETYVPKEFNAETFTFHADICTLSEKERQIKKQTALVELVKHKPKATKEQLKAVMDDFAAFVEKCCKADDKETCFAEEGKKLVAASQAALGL

Molecule	effect on emission signal of OTA-HSA complex, in words [1]	effect on emission signal of OTA-RSA complex, in words [2]	effect on fluorescence anisotropy of OTA-HSA, in words [3, 14]	displacement of OTA from RSA (free fraction), in words ([4]; ligand 0–30 μM, overall)	displacement of OTA from HSA (free fraction), in words ([5]; ligand 30 μM)	effect on fluorescence anisotropy of OTA-RSA, in words [6]	effect on fluorescence anisotropy of OTA-HSA, in words ([3]; ligand 15 μM)	displacement of OTA from HSA (free fraction), in words ([5]; ligand 0–30 μM, overall)	other results
O=C(CCCCC(=O)Nc1c(I)cc(I)c(C(=O)O)c1I)Nc1c(I)cc(I)c(C(=O)O)c1I [iodipamide]	only slightly modified	only slightly modified	only slightly decreased	weak displacing effects	only minor displacement	only slightly decreased			
hemin	remarkable decreases	remarkable decreases	smaller, gradual decreases			smaller, gradual decreases	marked decreases	better displacing effect than bilirubin	displacement of OTA from RSA (free fraction), in words ([4]; ligand 15 and 30 μM): weak to moderate impacts
C[C@@H]1Cc2c(Cl)cc(C(=O)N[C@@H](Cc3ccccc3)C(=O)O)c(O)c2C(=O)O1 [OTA, Ochratoxin A]									binding constant of OTA-BSA complex [7]: > 10^6 L/mol; fold weaker complex with BSA compared to HSA [7]: approximately 10 fold; Kd ([4]; Ka of OTA-RSA complex, no competitor, OTA 1.0 μM, RSA up to 1.5 μM, PBS pH 7.4, 1:1 stoichiometry): 0.34 µM and 0.345 µM; Kd [5]: 0.04 µM; association/binding constant of the OTA-HSA complex [8]: exceeds 10^7 L/mol; free unbound fraction in the human circulation [9]: 0.02%; plasma elimination half-life in man [9]: approximately 35 days; fold weaker complex with RSA compared to HSA [10]: approximately 10 fold
O=c1cc(-c2ccccc2)oc2cc(O)cc(O)c12 [CHR, Chrysin]	strong decreases	strong decreases	only slightly decreased	weak displacing effects	only minor displacement	only slightly decreased			effect on kidney levels of OTA, in words [11]: did not cause statistically significant changes; effect on plasma levels of OTA, in words [11]: did not cause statistically significant changes
C=CC1=C(C)/C(=C/c2[nH]c(Cc3[nH]c(/C=C4\NC(=O)C(C)=C4C=C)c(C)c3CCC(=O)O)c(CCC(=O)O)c2C)NC1=O [bilirubin]	remarkable decreases	remarkable decreases	smaller, gradual decreases	moderate to strong displacement	only a minor elevation	smaller, gradual decreases	marked decreases		displacement of OTA from HSA (free fraction), in words ([5]; ligand 3 and 15 μM): no significant increase
O=c1cc(-c2ccccc2)oc2cc(OS(=O)(=O)O)cc(O)c12 [C7S, chrysin-7-sulfate]	strong decreases	strong decreases	marked reduction	strongly disrupted				strongly interfered	affinity to HSA, fold higher than CHR [12]: 3 fold; displacement of OTA from RSA (free fraction), in words ([4]; ligand 30 μM): almost completely displaced; fold lower Ka of OTA-RSA in the presence of the ligand ([4]; ligand 30 μM): approximately 100 fold; unbound fraction of OTA with HSA ([5]; ligand 15 μM): 55%; fold lower Ka of OTA-HSA in the presence of the ligand ([5]; ligand 30 μM): approximately 100 fold; unbound fraction of OTA with HSA ([5]; ligand 30 μM): 75%; effect on plasma levels of OTA, in words ([13]; C7S 1 mg/kg i.v. with OTA 50 μg/kg i.v., 2, 6 and 24 h): did not induce significant changes; effect on kidney levels of OTA, in words ([13]; C7S 1 mg/kg i.v. with OTA 50 μg/kg i.v., 24 h): did not affect; effect on kidney levels of OTA, in words [13, 15]: slightly decreased; effect on plasma levels of OTA, in words [13, 15]: not statistically significant
